Measurements published in ChEMBL document CHEMBL5550106, “Recent advances in the exploration of oxazolidinone scaffolds from compound development to antibacterial agents and other bioactivities” (Eur J Med Chem, 2024).
Converted amounts (≈) assume the structure as drawn.

Key:
[1] = target: Coagulation factor X (Homo sapiens, UniProt P00742); test: Inhibition of human factor Xa
[2] = system: Staphylococcus aureus; test: Antibacterial activity against Staphylococcus aureus assessed as reduction in microbial growth by CLSI based broth microdilution method; assay type: functional
[3] = system: Staphylococcus epidermidis; test: Antibacterial activity against Methicillin-resistant Staphylococcus epidermidis assessed as bacterial growth inhibition; assay type: functional
[4] = system: Staphylococcus aureus; test: Antibacterial activity against methicillin-resistant Staphylococcus aureus assessed as reduction in microbial growth by CLSI based broth microdilution method; assay type: functional
[5] = system: Staphylococcus epidermidis; test: Antibacterial activity against linezolid-resistant Staphylococcus epidermidis assessed as reduction in bacterial growth; assay type: functional
[6] = system: Staphylococcus aureus; test: Antibacterial activity against Linezolid-resistant Staphylococcus aureus assessed as reduction in bacterial growth; assay type: functional
[7] = system: Staphylococcus epidermidis; test: Antibacterial activity against Staphylococcus epidermidis assessed as reduction in microbial growth after 24 hrs by CLSI based microdilution method; assay type: functional
[8] = system: Haemophilus influenzae; test: Antibacterial activity against Haemophilus influenzae assessed as bacterial growth inhibition measured after 16 to 24 hrs by broth microdilution assay; assay type: functional; conditions: time 16-24 hrs
[9] = system: Staphylococcus aureus; test: Antibacterial activity against Staphylococcus aureus HG001 assessed as reduction in bacterial cell growth incubated for 16 to 18 hrs by two-fold serial dilution method; assay type: functional; conditions: time 16-18 hrs
[10] = system: Staphylococcus epidermidis; test: Antibacterial activity against Methicillin-resistant Staphylococcus epidermidis assessed as inhibition of bacterial growth; assay type: functional
[11] = system: Staphylococcus aureus; test: Antibacterial activity against Methicillin-resistant Staphylococcus aureus assessed as inhibition of bacterial growth; assay type: functional
[12] = system: Mycobacterium tuberculosis; test: Antibacterial activity against Mycobacterium tuberculosis H37Rv assessed as inhibition of bacterial growth; assay type: functional
[13] = system: Mycobacterium tuberculosis; test: Antimycobacterial activity against Mycobacterium tuberculosis H37Rv assessed as bacterial growth inhibition incubated for 7 days by fluorescence based analysis; assay type: functional; conditions: 168 h, time 7 day
[14] = system: Staphylococcus aureus; test: Antimicrobial activity against Methicillin-sensitive Staphylococcus aureus ATCC 29213 assessed as reduction in bacterial growth; assay type: functional
[15] = system: Staphylococcus aureus; test: Antimicrobial activity against […] Staphylococcus aureus ATCC 25923 assessed as reduction in microbial growth; assay type: functional
[16] = system: Enterococcus faecalis; test: Antibacterial activity against vancomycin-resistant Enterococcus faecalis incubated for 18 hrs by broth microdilution method; assay type: functional
[17] = system: Mycobacterium tuberculosis; test: Antimycobacterial activity against Mycobacterium tuberculosis H37Rv assessed as reduction in bacterial growth measured for 7 days by resazurin dye based assay; assay type: functional; conditions: 168 h, time 7 day

Coagulation factor X, sequence (P00742 41-179 limits assumed): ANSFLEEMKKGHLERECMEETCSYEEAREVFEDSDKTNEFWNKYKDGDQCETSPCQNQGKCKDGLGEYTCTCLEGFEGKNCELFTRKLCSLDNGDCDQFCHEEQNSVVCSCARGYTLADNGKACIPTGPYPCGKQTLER
Coagulation factor X, sequence (P00742 235-488 limits assumed): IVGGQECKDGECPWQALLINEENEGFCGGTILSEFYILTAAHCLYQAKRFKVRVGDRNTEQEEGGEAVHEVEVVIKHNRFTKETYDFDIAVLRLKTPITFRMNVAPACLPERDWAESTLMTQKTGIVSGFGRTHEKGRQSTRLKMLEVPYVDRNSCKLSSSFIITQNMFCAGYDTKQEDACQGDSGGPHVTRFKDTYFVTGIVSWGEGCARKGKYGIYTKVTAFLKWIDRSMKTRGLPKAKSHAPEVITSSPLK

## O=C(NC[C@@H]1OC(=O)N2c3ccc(N4CCOCC4=O)cc3OC[C@@H]12)c1ccc(Cl)s1
[1]
  IC50: 3 nM

## CC(=O)NC[C@H]1CN(c2ccc(-c3ccc4c(c3)CC3(C(=O)NCNC3=O)C3CCCCC43)c(F)c2)C(=O)O1 (some centres undefined)
[2]
  MIC: 8 µg/mL
[3]
  MIC: 4 µg/mL (≈ 7.48 µM)
[4]
  MIC: 8 µg/mL
[5]
  MIC: > 32 µg/mL
[6]
  MIC: > 32 µg/mL
[7]
  MIC: 8 µg/mL

## COC(=O)C1(C(=O)OC)Cc2cc(-c3ccc(N4C[C@H](CO)OC4=O)cc3F)ccc2N2CCOCC21 (some centres undefined)
[2]
  MIC: 16 µg/mL
[3]
  MIC: 8 µg/mL (≈ 15.5 µM)
[4]
  MIC: 8 µg/mL
[5]
  MIC: > 32 µg/mL
[6]
  MIC: > 32 µg/mL
[7]
  MIC: 8 µg/mL

## O=C(NC[C@@H]1OC(=O)N2c3ccc(N4CCOCC4=O)cc3NC[C@@H]12)c1ccc(Cl)s1
[1]
  IC50: 5 nM

## NS(=O)(=O)c1ccc(N2C[C@H](CO)OC2=O)cc1
[8]
  MIC: 16 µg/mL (≈ 58.8 µM)

## O=C(NC[C@@H]1OC(=O)N2c3ccc(N4CCCCC4=O)cc3SC[C@@H]12)c1ccc(Cl)s1
[1]
  IC50: 4 nM

## O=C1O[C@@H](CO)CN1c1ccc(-c2ccc3c(c2)CC2(C(=O)NCNC2=O)C2CCCCC32)c(F)c1 (some centres undefined)
[2]
  MIC: 4 µg/mL
[3]
  MIC: < 1 µg/mL
[4]
  MIC: 2 µg/mL
[5]
  MIC: 32 µg/mL (≈ 64.8 µM)
[6]
  MIC: 32 µg/mL (≈ 64.8 µM)
[7]
  MIC: 2 µg/mL

## CC(=O)NCC1CN(c2ccc(N3CCN(C(=O)CCOCCOCn4cc(CNC(=O)C(CCCCNC(=O)c5cccc(O)c5O)NC(=O)c5cccc(O)c5O)nn4)CC3)c(F)c2)C(=O)O1 (centres undefined)
[9]
  MIC: > 64 µM

## O=C(NC[C@@H]1OC(=O)N2c3ccc(N4CCOCC4=O)cc3OC[C@H]12)c1ccc(Cl)s1
[1]
  IC50: 50 nM

## CC(=O)NC[C@H]1CN(c2ccc([S+](C)[O-])cc2)C(=O)O1 (some centres undefined)
[10]
  MIC: 1 µg/mL (≈ 3.37 µM)
[11]
  MIC: 1 µg/mL (≈ 3.37 µM)

## COC(=O)C1(C(=O)OC)Cc2cc(-c3ccc(N4C[C@H](CNC(C)=O)OC4=O)cc3F)ccc2N2CCOCC21 (some centres undefined)
[2]
  MIC: 8 µg/mL
[3]
  MIC: 4 µg/mL (≈ 7.2 µM)
[4]
  MIC: 4 µg/mL
[5]
  MIC: 32 µg/mL (≈ 57.6 µM)
[6]
  MIC: > 32 µg/mL
[7]
  MIC: 4 µg/mL

## CC(C)(C)C[C@@H](NC(=O)OCC1c2ccccc2-c2ccccc21)C(=O)N[C@@H](Cc1ccccc1)[C@H]1CN(c2ccc(N3CCOCC3)c(F)c2)C(=O)O1
[12]
  MIC: 1.9 µg/mL (≈ 2.59 µM)

## CC(=O)N(C)c1ccc2c(c1)OC[C@H]1[C@H](CNC(=O)c3ccc(Cl)s3)OC(=O)N21
[1]
  IC50: 2210 nM

## CC(=O)NC[C@H]1CN(c2ccc(C(C)=O)cc2)C(=O)O1 [DUP-721]
[10]
  MIC: 4 µg/mL (≈ 14.5 µM)
[11]
  MIC: 4 µg/mL (≈ 14.5 µM)

## CC(=O)NCC1CN(c2ccc(N3CCN(C(=O)COn4cc(CNC(=O)C(CCCCNC(=O)c5cccc(O)c5O)NC(=O)c5cccc(O)c5O)nn4)CC3)c(F)c2)C(=O)O1 (centres undefined)
[9]
  MIC: > 64 µM

## CC(=O)NC[C@H]1CN(c2ccc(-c3ccc4c(c3)CC3(C(=O)NC(=O)NC3=O)C3CCCN43)c(F)c2)C(=O)O1 (some centres undefined)
[2]
  MIC: 2 µg/mL
[3]
  MIC: < 1 µg/mL
[4]
  MIC: 2 µg/mL
[5]
  MIC: 32 µg/mL (≈ 59.8 µM)
[6]
  MIC: 16 µg/mL (≈ 29.9 µM)
[7]
  MIC: 2 µg/mL

## CC(=O)NC[C@H]1CN(c2ccc(N3CCSCC3)c(F)c2)C(=O)O1 [SUTEZOLID]
[13]
  MIC: 0.03 µg/mL (≈ 0.0849 µM)

## C[S+]([O-])c1ccc(N2CC(CCl)OC2=O)cc1 (centres undefined)
[8]
  MIC: 16 µg/mL (≈ 58.4 µM)

## Cn1nnc(-c2ccc(-c3ccc(N4C[C@H](COP(=O)(O)O)OC4=O)cc3F)cn2)n1 [TEDIZOLID PHOSPHATE]
[14]
  MIC90: 0.12 µg/mL
[15]
  MIC90: 0.12 µg/mL
[16]
  MIC90: 0.12 µg/mL
[17]
  MIC90: 0.125 µg/mL
